The record followed here is US7091352B2, “Compounds substituted with bicyclic amino groups” (priority 2001, dated 2006).

The subject of one assay is TNFα production. The experiment in a line: Inhibition of the production of TNFα in vitro in human whole blood (LPS stimulation, ELISA). Type of assay: cell-based. Conditions: read-out: Inhibitory Effect on TNFα Production IC50. As to the method: (§1) This test was performed according to the method of Hartman, et al. [D. A. Hartman, S. J. Ochalski and R. P. Carlson; The effects of anti-inflammatory and antiallergic drugs on cytokine release after stimulation of human whole blood by lipopolysaccharide and zymosan A: Inflamm. Res., 44, 269 (1995)].
(§2) Peripheral blood samples were collected in the presence of heparin from healthy adult volunteers. 1000 μl of whole blood were added to an Eppendorf tube to which 2 μl of a dimethyl sulfoxide solution of the test compound had been added in advance, after which 10 μl of lipopolysaccharide (E. coli 026: B6 origin, Difco) were added as a stimulant (final concentration of said lipopolysaccharide: 10 μg/ml). This was mixed well and then incubated for 6 hours at 37° C. in the presence of 5% CO2. At the end of the incubation, the mixture was cooled to 4° C. to stop the reaction, followed immediately by centrifuging for 5 minutes at 14,000 rpm to separate and collect the supernatant plasma. The IL-1β and TNFα produced and released into the plasma were measured using commercially available enzyme immunoassay (ELISA) kits [Cayman (IL-1β) and Genzyme (TNFα)]. […] The inhibitory effect [IC50 (μM)] on the production of IL-1β and TNFα was determined by the method of least squares from the amounts of the cytokines produced in the presence and absence of the test compound.

In a further assay the test system is IL-1β production. Briefly: Inhibition of the production of IL-1β in vitro in human whole blood (LPS stimulation, ELISA). Type of assay: cell-based. The conditions noted are these: lipopolysaccharide 10 μg/ml, 6 hours at 37° C., plasma ELISA, read-out: Inhibitory Effect on IL-1β Production IC50. The procedure:
as §1, §2

Like-named read-outs stand apart in the source and are kept apart here.

Regarding `CC1C[C@H]2C=C(c3n[nH]c(-c4ccc(F)cc4)c3-c3ccncc3)CCN2C1` (stereo partly drawn) [Example 12, 5-(4-Fluorophenyl)-3-[(8aS)-2-methyl-1,2,3,5,6,8a-hexahydroindolizin-7-yl]-4-(pyridin-4-yl)pyrazole], the IC50 in the assay with TNFα production (Homo sapiens, 6 h) is 2.6 nM.

Consider `OC1(c2n[nH]c(-c3ccc(F)cc3)c2-c2ccncc2)CCN2CCCC2C1` (racemic) [Example 2, (±)-5-(4-Fluorophenyl)-3-(7-hydroxy-1,2,3,5,6,7,8,8a-octahydroindolizin-7-yl)-4-(pyridin-4-yl)pyrazole], for which the concentration for half-maximal inhibition (IC50) is 35 nM with IL-1β production and 70 nM in the assay on TNFα production (human whole blood, lipopolysaccharide 10 μg/ml, 6 hours at 37° C., plasma ELISA).
